# Experimental data published in patent US20130115256A1, “METHODS FOR TREATING OR PREVENTING VASCULAR GRAFT FAILURE” (priority 2010, published 2013).
# Experiments:
# [1] = tested on: human saphenous vein (HSV); test: Human saphenous vein organ culture model of intimal hyperplasia
# Experimental: Dc-identified, discarded segments of human saphenous vein (HSV) were collected from consented patients undergoing coronary artery or peripheral vascular bypass surgeries. HSV segments were stored in a saline solution until the end of the surgical procedure, at which time they were placed in cold transplant harvest buffer (100 mM potassium lactobionate, 25 mM KH2PO4, 5 mM MgSO4, 30 mM Raffinose, 5 mM Adenosine, 3 mM Glutathione, 1 mM Allopurinol, 50 g/L Hydroxyethyl starch, pH 7.4). The vessels were used within 24 hours of harvest. Using sterile technique, HSV segments were transferred to a 60-mm Petri dish under a sterile hood. The edges (0.5 mm) of each segment were removed with a blade and excess adventitial tissue and fat removed with minimal manipulation. […]
# After viability was determined in the muscle bath, additional rings were cut and placed in 8-well chamber slides and maintained in RPMI 1640 medium supplemented with 30% FBS, 1% L-glutamine and 1% penicillin/streptomycin for 14 days at 37° C. in an atmosphere of 5% CO2 in air. […]
# After 14 days of organ culture, vein segments were fixed in 0.5 mL of 10% formalin at 37° C. for 30 minutes and embedded in paraffin for sectioning. […] Intimal and medial thickening was measured for each section at 5× magnification with the microscope's computerized image analysis system. […]
# [2] = tested on: mouse vein graft (intrathoracic inferior vena cava); test: Mouse vein graft model; assay type: in vivo
# Experimental: 12-week-old C57BL/6 wild type mice (Harlan) were used for all experiments, as previously described (Muto, A. et al., J. Exp. Med., 2011, 208(3): 561-575, incorporated herein by reference in its entirety). […] Prior to implantation, the vein was treated ex vivo with 100 μM of MMI-0100 ([…] (SEQ ID NO: 1)) peptide solution, or control PBS solution, for 20 minutes at room temperature.
# To implant the vein graft, a midline incision was made in the abdomen of a recipient mouse and the infrarenal abdominal aorta was exposed. The abdominal aorta was temporarily occluded with atraumatic micro-clamps and a segment corresponding to the length of the vein graft was excised. The vein was sutured into the arterial circulation using 10-0 nylon in continuous fashion.
# Vein grafts were followed postoperatively using the Vevo770® High-Resolution Imaging System (VisualSonics, Toronto, Canada), with weekly measurements of graft wall thickness. At 28 days after surgery, mice were sacrificed to allow explantation of the vein graft. Tissue was either frozen with RNA stabilization reagent (Qiagen) or explanted for paraffin embedding after circulatory flushing with ice-cold PBS followed by 4% paraformaldehyde perfusion-fixation. Vein graft wall thickness, lumen diameter, and outer wall diameter (elastic lamina) were measured in elastin-stained sections using computer morphometry (ImageJ).
# Vein graft samples were fixed as described above and harvested for histology. Specimens were embedded in paraffin and cut in cross section (5 μm). Hematoxylin & Eosin, Masson trichrome, and van Gieson elastin staining were performed for all samples. Cells were cultured on gelatin-coated cover slips and fixed with methanol.
# All sections were treated for antigen retrieval using 10 mmol/L citrate buffer (pH 6.0) prior to boiling or proteinase K (20 μg/ml) treatment, at room temperature, for 10-15 minutes. Immunohistochemical detection was performed using DAB as well as NovaRED® substrate (Vector). Sections were counterstained with Mayer's Hematoxylin.
# The efficacy of MMI-0100 ([…]; SEQ ID NO: 1) in treating intimal hyperplasia in vivo was examined using a mouse model of vein bypass graft. […] The IVC was soaked in a 100 μM solution of MMI-0100 ([…]; SEQ ID NO: 1) at room temperature for 20 minutes prior to implantation into a host (C57BL/6J) mouse to bypass the infrarenal aorta. Five treated and six untreated veins were transplanted for a total of 11 transplanted animals. Vein graft wall thickness was determined using a Vevo7700 ultrasound imaging system at each week. […]
sequence,measurement,setting,value
YARAAARQARAKALARQLGVAA [MMI-0100],mean intimal thickness,"[1]; 10 μM MMI-0100, 14 days culture, 30% FBS",14 μm
same,intima:media (I:M) ratio,"[1]; 100 μM MMI-0100, 14 days, 30% serum",greater reduction
same,"reduced wall thickness compared to control grafts, histological staining","[2]; 100 μM ex vivo 20 minutes, 4 weeks",72%
same,F4/80-positive cells infiltrating into vein grafts,"[2]; 100 μM ex vivo 20 minutes, 4 weeks, immunohistochemistry",fewer
same,vein graft wall thickness ratio by ultrasound,"[2]; follow-up study, 100 μM ex vivo 20 minutes, 4 weeks (control grafts 4.7-fold)",2.6 fold
same,grafted vessel wall thickness relative to the originally harvested IVC,"[2]; vein soaked ex vivo in 100 μM for 20 minutes, 4 weeks after graft, ultrasound (control almost five times)",about 2.5 times
